Reference: PubChem BioAssay AID292 (DTP/NCI, 2004)
Where “and” joins values, the source holds several entries; their conditions need not be identical. Equal values may be shown once. Toxic doses and inconclusive results are not listed.

System: B6C3F1 mice, ip Sarcoma M5076, median survival T/C
Test: NCI In Vivo Anticancer Drug Screen. Data for tumor model Sarcoma M5076 (intraperitoneal) in B6C3F1 mice
Conditions: endpoint: median survival time, schedule: Q04DX004 (ip), higher = longer survival
Experimental: The antitumor activity of compounds was measured in mice bearing transplantable tumors. Survival or tumor size were measured and the results are expressed as the measurement made in the treated group (T) divided by the measurement made in the vehicle treated control group (C). The tumor model used in this assay is Sarcoma M5076 (intraperitoneal) in B6C3F1 mice

[1] = dose: 60.0 mg/kg/injection, vehicle: saline with Tween-80
[2] = dose: 25.0 mg/kg/injection, vehicle: saline
[3] = dose: 50.0 mg/kg/injection, vehicle: saline
[4] = dose: 100.0 mg/kg/injection, vehicle: saline
[5] = dose: 50.0 mg/kg/injection, vehicle: saline with Tween-80
[6] = dose: 200.0 mg/kg/injection, vehicle: saline with Tween-80
[7] = dose: 50.0 mg/kg/injection, vehicle: Klucel (hydroxypropylcellulose) (HPC)
[8] = dose: 100.0 mg/kg/injection, vehicle: Klucel (hydroxypropylcellulose) (HPC)
[9] = dose: 200.0 mg/kg/injection, vehicle: Klucel (hydroxypropylcellulose) (HPC)
[10] = dose: 400.0 mg/kg/injection, vehicle: Klucel (hydroxypropylcellulose) (HPC)
[11] = dose: 2.5 mg/kg/injection, vehicle: Klucel (hydroxypropylcellulose) (HPC)
[12] = dose: 5.0 mg/kg/injection, vehicle: Klucel (hydroxypropylcellulose) (HPC)
[13] = dose: 10.0 mg/kg/injection, vehicle: Klucel (hydroxypropylcellulose) (HPC)
[14] = dose: 20.0 mg/kg/injection, vehicle: Klucel (hydroxypropylcellulose) (HPC)
[15] = dose: 37.5 mg/kg/injection, vehicle: Klucel (hydroxypropylcellulose) (HPC)
[16] = dose: 75.0 mg/kg/injection, vehicle: Klucel (hydroxypropylcellulose) (HPC)
[17] = dose: 150.0 mg/kg/injection, vehicle: Klucel (hydroxypropylcellulose) (HPC)
[18] = dose: 30.0 mg/kg/injection, vehicle: saline
[19] = dose: 37.5 mg/kg/injection, vehicle: saline with Tween-80
[20] = dose: 75.0 mg/kg/injection, vehicle: saline with Tween-80

## CCOc1c2c(nn(C)c1=O)Oc1ccccc1N2CCCN1CCOCC1
dose: 7.5 mg/kg/injection, vehicle: saline with Tween-80
  T/C: 92 % of control
dose: 15.0 mg/kg/injection, vehicle: saline with Tween-80
  T/C: 106 % of control
dose: 30.0 mg/kg/injection, vehicle: saline with Tween-80
  T/C: 113 % of control
[1]
  T/C: 97 % of control

## CN(C)N=Nc1ccc(C(=O)O)cc1
[2]
  T/C: 122 % of control
[3]
  T/C: 153 % of control and 159 % of control and 169 % of control
[4]
  T/C: 168 % of control and 178 % of control and 181 % of control

## CNNCc1ccc(C(=O)NC(C)C)cc1
dose: 22.0 mg/kg/injection, vehicle: saline
  T/C: 119 % of control
dose: 88.0 mg/kg/injection, vehicle: saline
  T/C: 152 % of control
dose: 352.0 mg/kg/injection, vehicle: saline
  T/C: 152 % of control

## Cc1cccc(OCC(O)CN2CC2)c1 (configuration not stated)
dose: 25.0 mg/kg/injection, vehicle: saline with Tween-80
  T/C: 101 % of control and 104 % of control
dose: 36.0 mg/kg/injection, vehicle: saline with Tween-80
  T/C: 97 % of control
[5]
  T/C: 105 % of control and 114 % of control
[1]
  T/C: 102 % of control
dose: 166.66 mg/kg/injection, vehicle: saline with Tween-80
  T/C: 119 % of control
[6]
  T/C: 108 % of control
dose: 277.77 mg/kg/injection, vehicle: saline with Tween-80
  T/C: 116 % of control

## N#CC1C(=O)NC(=S)NC1c1ccccc1 (configuration not stated)
[7]
  T/C: 97 % of control
[8]
  T/C: 101 % of control
[9]
  T/C: 97 % of control
[10]
  T/C: 100 % of control

## CCOC(=O)NC1CCc2cc(OC)c(OC)c(OC)c2-c2ccc(OC)c(=O)cc21 (configuration not stated)
[11]
  T/C: 150 % of control
[12]
  T/C: 183 % of control
[13]
  T/C: 176 % of control
[14]
  T/C: 161 % of control and 178 % of control

## [Cl][Mn][Cl]
dose: 12.5 mg/kg/injection, vehicle: saline
  T/C: 96 % of control
[2]
  T/C: 100 % of control
[3]
  T/C: 124 % of control
[4]
  T/C: 111 % of control

## O=C(Nc1ccccc1)c1cc2ccccc2oc1=O
dose: 28.13 mg/kg/injection, vehicle: saline with Tween-80
  T/C: 94 % of control
dose: 56.25 mg/kg/injection, vehicle: saline with Tween-80
  T/C: 92 % of control

## CCCCCCCC1C(=O)OC2CC3C(C)=CC(=O)C(O)C3(C)C3C4(O)OCC23C1C(C)C4O (configuration not stated)
[11]
  T/C: 109 % of control
[12]
  T/C: 108 % of control
[13]
  T/C: 109 % of control
[14]
  T/C: 106 % of control

## CC1(C)CC(OS(C)(=O)=O)CC(C)(C)N1O
dose: 18.75 mg/kg/injection, vehicle: Klucel (hydroxypropylcellulose) (HPC)
  T/C: 99 % of control
[15]
  T/C: 100 % of control
[16]
  T/C: 102 % of control
[17]
  T/C: 102 % of control

## O=NNc1cccnc1
dose: 12.5 mg/kg/injection, vehicle: water
  T/C: 99 % of control and 119 % of control
dose: 25.0 mg/kg/injection, vehicle: water
  T/C: 110 % of control and 113 % of control
dose: 50.0 mg/kg/injection, vehicle: water
  T/C: 97 % of control and 110 % of control
dose: 100.0 mg/kg/injection, vehicle: water
  T/C: 124 % of control

## O=S(=O)(O)c1cc(N=C=S)ccc1/C=C/c1ccc(N=C=S)cc1S(=O)(=O)O
[2]
  T/C: 100 % of control
[3]
  T/C: 103 % of control
[4]
  T/C: 110 % of control
dose: 200.0 mg/kg/injection, vehicle: saline
  T/C: 112 % of control

## Oc1c(Cl)cc(Cl)cc1C=NCCSc1ccc(Cl)cc1
[7]
  T/C: 97 % of control and 121 % of control
[8]
  T/C: 98 % of control and 117 % of control
[9]
  T/C: 97 % of control and 110 % of control
[10]
  T/C: 94 % of control and 112 % of control
dose: 800.0 mg/kg/injection, vehicle: Klucel (hydroxypropylcellulose) (HPC)
  T/C: 100 % of control

## O=NNc1ccccn1
dose: 3.13 mg/kg/injection, vehicle: saline
  T/C: 109 % of control
dose: 6.25 mg/kg/injection, vehicle: saline
  T/C: 117 % of control
dose: 18.0 mg/kg/injection, vehicle: saline
  T/C: 172 % of control
[2]
  T/C: 160 % of control
[18]
  T/C: 156 % of control
[3]
  T/C: 184 % of control

## NC(=S)c1ncn(C2OC(COC=O)C(OC=O)C2OC=O)c1NC=O (configuration not stated)
dose: 86.4 mg/kg/injection, vehicle: Klucel (hydroxypropylcellulose) (HPC)
  T/C: 182 % of control
dose: 144.0 mg/kg/injection, vehicle: Klucel (hydroxypropylcellulose) (HPC)
  T/C: 174 % of control
dose: 240.0 mg/kg/injection, vehicle: Klucel (hydroxypropylcellulose) (HPC)
  T/C: 184 % of control
[10]
  T/C: 168 % of control and 198 % of control
dose: 666.67 mg/kg/injection, vehicle: Klucel (hydroxypropylcellulose) (HPC)
  T/C: 229 % of control

## Cc1c(O)c2ccccc2c2c1sc(NCCCN(CCO)CCO)[n+]2C
dose: 7.5 mg/kg/injection, vehicle: saline
  T/C: 93 % of control
dose: 15.0 mg/kg/injection, vehicle: saline
  T/C: 98 % of control
[18]
  T/C: 94 % of control

## COc1cc2c(c(OC)c1OC)-c1ccc(SC)c(=O)cc1[C@@H](NC(C)=O)CC2
dose: 0.03 mg/kg/injection, vehicle: Klucel (hydroxypropylcellulose) (HPC)
  T/C: 102 % of control
dose: 0.05 mg/kg/injection, vehicle: Klucel (hydroxypropylcellulose) (HPC)
  T/C: 106 % of control
dose: 0.1 mg/kg/injection, vehicle: Klucel (hydroxypropylcellulose) (HPC)
  T/C: 104 % of control and 113 % of control
dose: 0.14 mg/kg/injection, vehicle: Klucel (hydroxypropylcellulose) (HPC)
  T/C: 114 % of control
dose: 0.19 mg/kg/injection, vehicle: Klucel (hydroxypropylcellulose) (HPC)
  T/C: 112 % of control
dose: 0.23 mg/kg/injection, vehicle: Klucel (hydroxypropylcellulose) (HPC)
  T/C: 116 % of control
dose: 0.45 mg/kg/injection, vehicle: Klucel (hydroxypropylcellulose) (HPC)
  T/C: 103 % of control

## Cn1[nH]c2[nH]c(=S)sc(=S)c2c1=O
dose: 25.0 mg/kg/injection, vehicle: Klucel (hydroxypropylcellulose) (HPC)
  T/C: 100 % of control
[7]
  T/C: 94 % of control
[8]
  T/C: 95 % of control
[9]
  T/C: 94 % of control
[10]
  T/C: 95 % of control

## COc1ccc2c(n1)Sc1nc3ccccc3nc1N2
[19]
  T/C: 92 % of control
[20]
  T/C: 98 % of control
dose: 150.0 mg/kg/injection, vehicle: saline with Tween-80
  T/C: 87 % of control

## COc1ccc(-n2c(SCC(=O)NC(=O)Nc3ccccc3)nc3c(Br)cc(Br)cc3c2=O)cc1
[15]
  T/C: 91 % of control
[16]
  T/C: 93 % of control
[17]
  T/C: 89 % of control
dose: 600.0 mg/kg/injection, vehicle: Klucel (hydroxypropylcellulose) (HPC)
  T/C: 90 % of control

## O=[N+]([O-])c1ccc(/C=C/C=C/C=C/C=C/c2ccc(S(=O)(=O)F)cc2Cl)c(Cl)c1
dose: 18.75 mg/kg/injection, vehicle: saline with Tween-80
  T/C: 95 % of control
[19]
  T/C: 96 % of control
[20]
  T/C: 98 % of control

## N=C(N)c1ccc(Nc2ccc(-c3cc4ccc(C(=N)N)cc4[nH]3)cc2)cc1
dose: 3.75 mg/kg/injection, vehicle: Klucel (hydroxypropylcellulose) (HPC)
  T/C: 115 % of control

## NC(=O)C1C=CN(Cc2ccccc2)C=C1
[5]
  T/C: 111 % of control
dose: 100.0 mg/kg/injection, vehicle: saline with Tween-80
  T/C: 116 % of control
[6]
  T/C: 106 % of control
